The supplement of paper PMC10307832

Experiments:
Test in all cases: relative viability (nuclei count vs DMSO), 5 days (fraction); higher = more cells survive
[1] = compound: C1=CC2=NC=CN=C2C=C1/C=C/3\C(=O)NC(=O)S3 + Nc1nc2[nH]cc(CCc3ccc(C(=O)N[C@@H](CCC(=O)O)C(=O)O)cc3)c2c(=O)[nH]1 [Pemetrexed] (partner 0.2 µM)
How it was run: (§1)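 Relative viability divides the nuclei count in treated wells by that in vehicle wells. Lung cancer cell lines were seeded in 1536-well plates, dosed by pin tool the next day, and fixed and stained after 5 days in one step with final 0.05% Triton X-100, 1% formaldehyde and 1 ug/ml Hoechst. Dosing was a single drug or a fixed anchor-drug dose plus five library-drug doses (not always all listed) in √10 steps, and values are medians of duplicate plates imaged at 4×.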

BGJ398 + Trametinib = compound: CCN1CCN(c2ccc(Nc3cc(N(C)C(=O)Nc4c(Cl)c(OC)cc(OC)c4Cl)ncn3)cc2)CC1 [BGJ398] + CC(=O)Nc1cccc(-n2c(=O)n(C3CC3)c(=O)c3c(Nc4ccc(I)cc4F)n(C)c(=O)c(C)c32)c1 [Trametinib] (partner 0.02 µM)
How it was run: as §1

BGJ398 + Foretinib = compound: CCN1CCN(c2ccc(Nc3cc(N(C)C(=O)Nc4c(Cl)c(OC)cc(OC)c4Cl)ncn3)cc2)CC1 [BGJ398] + COc1cc2c(Oc3ccc(NC(=O)C4(C(=O)Nc5ccc(F)cc5)CC4)cc3F)ccnc2cc1OCCCN1CCOCC1 [Foretinib] (partner 0.25 µM)
How it was run: as §1

BGJ398 + Pemetrexed = compound: CCN1CCN(c2ccc(Nc3cc(N(C)C(=O)Nc4c(Cl)c(OC)cc(OC)c4Cl)ncn3)cc2)CC1 [BGJ398] + Nc1nc2[nH]cc(CCc3ccc(C(=O)N[C@@H](CCC(=O)O)C(=O)O)cc3)c2c(=O)[nH]1 [Pemetrexed] (partner 0.2 µM)
How it was run: as §1

Row | Cell Line | relative viability ([1]; first compound 0.02 µM) | relative viability ([1]; first compound 0.06325 µM) | relative viability ([1]; first compound 0.2 µM) | relative viability ([1]; first compound 0.6325 µM) | relative viability ([1]; first compound 2 µM) | relative viability (BGJ398 + Trametinib; first compound 0.01 µM) | relative viability (BGJ398 + Trametinib; first compound 0.03162 µM) | relative viability (BGJ398 + Trametinib; first compound 0.1 µM) | relative viability (BGJ398 + Trametinib; first compound 0.3162 µM) | relative viability (BGJ398 + Trametinib; first compound 1 µM) | relative viability (BGJ398 + Foretinib; first compound 0.01 µM) | relative viability (BGJ398 + Foretinib; first compound 0.03162 µM) | relative viability (BGJ398 + Foretinib; first compound 0.1 µM) | relative viability (BGJ398 + Foretinib; first compound 0.3162 µM) | relative viability (BGJ398 + Foretinib; first compound 1 µM) | relative viability (BGJ398 + Pemetrexed; first compound 0.01 µM) | relative viability (BGJ398 + Pemetrexed; first compound 0.03162 µM) | relative viability (BGJ398 + Pemetrexed; first compound 0.1 µM) | relative viability (BGJ398 + Pemetrexed; first compound 0.3162 µM) | relative viability (BGJ398 + Pemetrexed; first compound 1 µM)
1 | NCI-H2087 | 0.612 | 0.734 | 0.632 | 0.623 | 0.615 | 0.142 | 0.22 | 0.188 | 0.197 | 0.189 | 1.05 | 1.33 | 1.18 | 1.15 | 1.09 | 0.644 | 0.606 | 0.671 | 0.699 | 0.678
2 | NCI-H1437 | 0.345 | 0.291 | 0.293 | 0.289 | 0.265 | 0.59 | 0.508 | 0.559 | 0.519 | 0.393 | 1.42 | 1.29 | 1.27 | 1.25 | 1.28 | 0.322 | 0.309 | 0.296 | 0.321 | 0.298
3 | NCI-H2342 | 0.615 | 0.859 | 0.713 | 0.759 | 0.644 | 1.04 | 0.906 | 0.893 | 1.03 | 0.978 | 1.05 | 0.98 | 1.08 | 1.07 | 1.1 | 0.742 | 0.775 | 0.801 | 0.773 | 0.755
4 | ChaGo-K-1 | 0.263 | 0.277 | 0.262 | 0.265 | 0.256 | 0.876 | 0.914 | 0.871 | 0.922 | 0.929 | 0.899 | 0.991 | 0.914 | 1.01 | 0.907 | 0.261 | 0.249 | 0.242 | 0.269 | 0.281
5 | NCI-H650 | 1.03 | 0.996 | 1.02 | 0.864 | 0.659 | 0.927 | 1.04 | 1.08 | 0.963 | 0.959 | 0.983 | 1.06 | 1.06 | 1.04 | 0.928 | 0.988 | 0.931 | 0.995 | 0.956 | 0.974
6 | COR-L23 | 0.187 | 0.202 | 0.202 | 0.19 | 0.179 | 0.512 | 0.64 | 0.63 | 0.486 | 0.68 | 0.955 | 1.09 | 1.04 | 0.865 | 1.14 | 0.189 | 0.191 | 0.192 | 0.208 | 0.193
7 | COR-L 105 | 1.13 | 1.14 | 1.08 | 1.12 | 1.02 | 0.423 | 0.431 | 0.444 | 0.399 | 0.431 | 1.05 | 1.13 | 1.09 | 1.07 | 0.892 | 1.36 | 1.12 | 0.879 | 1.12 | 0.936
8 | LK-2 | 0.198 | 0.326 | 0.276 | 0.267 | 0.148 | 0.788 | 0.726 | 0.561 | 0.32 | 0.268 | 1.28 | 0.947 | 0.897 | 0.618 | 0.309 | 0.213 | 0.194 | 0.114 | 0.157 | 0.12
9 | 201T | 0.316 | 0.346 | 0.363 | 0.348 | 0.312 | 0.817 | 0.696 | 0.688 | 0.643 | 0.693 | 1.18 | 1.1 | 1.05 | 0.958 | 1.02 | 0.343 | 0.339 | 0.338 | 0.329 | 0.334
10 | NCI-H596 | 0.498 | 0.541 | 0.543 | 0.533 | 0.483 | 0.719 | 0.631 | 0.773 | 0.709 | 0.62 | 0.903 | 0.804 | 0.773 | 0.944 | 0.779 | 0.424 | 0.476 | 0.439 | 0.477 | 0.431
11 | H3255 | 0.532 | 0.559 | 0.577 | 0.616 | 0.533 | 0.61 | – | 0.702 | – | 0.707 | 0.985 | – | 0.961 | 0.386 | 0.878 | 0.608 | 0.434 | 0.604 | 0.509 | 0.629
12 | NCI-H647 | 0.162 | 0.19 | 0.168 | 0.178 | 0.182 | 0.374 | 0.573 | 0.526 | 0.447 | 0.345 | 1.09 | 1.12 | 1.12 | 1.39 | 1.27 | 0.179 | 0.16 | 0.19 | 0.201 | 0.185
13 | NCI-H2023 | 0.251 | 0.269 | 0.24 | 0.214 | 0.182 | 0.615 | 0.566 | 0.473 | 0.522 | 0.541 | 0.847 | 0.997 | 0.79 | 0.805 | 0.905 | 0.279 | 0.227 | 0.248 | 0.252 | 0.242
14 | NCI-H23 | 0.605 | 0.79 | 0.636 | 0.6 | 0.578 | 0.348 | 0.438 | 0.441 | 0.377 | 0.322 | 1.01 | 1.08 | 1.17 | 1.06 | 0.881 | 0.735 | 0.652 | 0.528 | 0.715 | 0.541
15 | NCI-H1944 | 0.537 | 0.587 | 0.575 | 0.564 | 0.584 | 0.371 | 0.452 | 0.403 | 0.387 | 0.382 | 0.946 | 0.889 | 0.941 | 0.831 | 0.826 | 0.652 | 0.635 | 0.502 | 0.495 | 0.606
16 | NCI-H1793 | 0.726 | 0.74 | 0.837 | 0.727 | 0.715 | 0.442 | 0.311 | 0.273 | 0.305 | 0.312 | 0.725 | 0.579 | 0.557 | 0.725 | 0.666 | 0.942 | 0.526 | 0.809 | 0.569 | 0.454
